Where two headings read alike, the source gives them in different places.
Experiments:
[1] = Experimental LogP by reverse-phase HPLC method; type: physicochemical; conditions: extrapolated log kw
Excerpt: LogP was experimentally determined using previously published reverse-phase high-performance liquid chromatography method, and this workflow was adapted using instrumentation described in the previous LC-MS/MS analysis section ([Coutinho et al, 2023]). Briefly, analogs were eluted using isocratic flow with an increasing percentage of organic solvent from 55% to 90% in increments of 5%. The change in the log of the retention factor, log k, was plotted against the fraction of organic solvent. This allowed for extrapolation to the y-intercept, which is when the fraction of organic in the system is zero, or log kw. The same workflow was applied to known compounds with a published logP value to establish a relationship between logP and log kw. This ratio was used to calculate the experimental logP from the log kw of the test compounds. The in silico prediction of logP values was obtained using an online calculator by Molinspiration Cheminformatics (molinspiration.com).

HasA = HasA (Pseudomonas aeruginosa, UniProt G3XD33); experiment: Kd determination by fluorescence quenching of apo-HasAp; conditions: read-out: HasA Kd; apo-HasAp 1 μM, 20 mM sodium phosphate pH 7.4, 25 °C, one-site binding fit
Sequence of HasA (G3XD33 entry or part of it): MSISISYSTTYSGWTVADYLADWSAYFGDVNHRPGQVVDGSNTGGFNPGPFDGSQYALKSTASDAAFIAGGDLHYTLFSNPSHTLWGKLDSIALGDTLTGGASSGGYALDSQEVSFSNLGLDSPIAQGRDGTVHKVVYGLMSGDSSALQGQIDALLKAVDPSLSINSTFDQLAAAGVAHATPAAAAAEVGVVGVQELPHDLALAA
Method: Wild-type, full-length HasAp was prepared from freshly transformed Escherichia coli BL21(DE3) competent cells as previously described in 4 L of M9 media. Cell pellets were resuspended and lysed with an LM-20 microfluidizer at 18,000 psi. Lysate was clarified by centrifugation and applied to a Q-Sepharose column. HasAp was eluted over a gradient from 20 to 600 mM NaCl in 20 mM Tris-HCl (pH 7.5), and desired fractions determined by SDS-PAGE were pooled. Apo-HasAp was further purified on a Butyl Sepharose Fast Flow column equilibrated with 50 mM sodium phosphate buffer with 0.7 M ammonium sulfate (pH 7.0). Holo-HasAp and other proteins eluted within 2–3 bed volumes of 50 mM sodium phosphate containing 0.5 M ammonium sulfate. Apo-HasAp was then eluted with a linear gradient of sodium phosphate buffer (50–20 mM) containing ammonium sulfate (0.5–0 M). Fractions were analyzed again by SDS-PAGE, and the apo-HasAp was pooled, concentrated (Amicon stirred cell with Ultracel 10 kDa filter), and exchanged into 20 mM sodium phosphate buffer.
Binding affinities were determined using a BioTek Synergy H1 microplate reader in a black 96-well plate. Compounds were solvated in H2O in serial dilutions (100–0.39 μM). One micromolar solution of apo-HasAp 20 mM sodium phosphate buffer (pH 7.4, 25 °C) was titrated into the ligand of interest. Emission spectra were recorded (300–500 nm) after excitation at 280 nm. The decrease in maximum emission was plotted against the ligand concentration (accounting for dilution) and fit to one-site binding using GraphPad Prism v10.

[2] = Caco-2 permeability screening; type: in vitro ADME; conditions: for Papp A→B / Papp B→A / efflux ratio at 20 µM: Caco-2, 20 μM; for Papp A→B / Papp B→A: 30 and 60 min, average ± SEM; for Papp A→B: read-out: Papp apical to basolateral; for Papp B→A: read-out: Papp basolateral to apical; for Papp: Caco-2, ranked by Papp against control drugs, read-out: Permeability ranking; for efflux ratio at 20 µM: human, read-out: Efflux ratio B to A/A to B
Method: (§1) Caco-2 cells were received from American Type Culture Collection and certified mycoplasma free. Cells were seeded on transwell plates (CoStar, growth area 0.33 cm^2/well, polycarbonate membrane, 0.33 μm pore size) between passage 20 and 27 and then analyzed between 21 and 25 days after wells were seeded to ensure enterocyte-like differentiation. Before assessing permeability, cells were washed once with Hank’s Balanced Salt Solution buffer, pH 7.4, and then incubated at 37 °C for 30 minutes. Transepithelial electrical resistance (TEER) was measured after equilibration before the experiment using an epithelial volt-ohmmeter (EVOM, World Precision Instruments), and cells were used if TEER > 250 Ω × cm^2. Cells were dosed to measure permeability from basolateral and apical sides at a concentration of 20 μM of test compound and 50 μM of Lucifer yellow. Lucifer yellow was used as a “zero permeability” marker to monitor the integrity of cell barrier. Samples were taken at 0 and 60 minutes from the donor side, and samples were taken at 30 and 60 minutes from the receiver side; media was replenished after the 30-minute sample was taken from both chambers. A calibration curve was prepared by serial dilution using the dosing solution in a 1:5 dilution. […] Samples were prepared for LC-MS/MS analysis by taking 100 μL of sample, adding 1 μM internal standard (GaSal-4 or GaSal-5), and crashing with 400 μL of methanol. Samples were centrifuged at 3000 rpm at 4 °C for 30 minutes, 200 μL of supernatant was transferred to a new plate, and 100 μL of water was added to each sample. Samples were vortexed and analyzed by LC-MS/MS as described earlier. […] To preliminarily evaluate organic cation transporter 1 (OCT1) or P-glycoprotein (P-gp)-dependent transport, transport studies were conducted with and without a 1 μM “inhibitor cocktail” alongside GaSal. […] The Papp for basolateral to apical, Papp apical to basolateral, and efflux ratio were reported for each compound. In order to calculate Papp, the concentration in the sampled time point was determined from the calibration curve and then converted to μg based on the volume of the chamber (0.2 mL for apical, 1.0 mL for basolateral). […] The calculation of Papp was determined using eq. […] Data are presented as the average ± SEM for each compound analyzed as n = 3 on 2 different days with 2 different cell line passages, for n = 6 total. GaSal is n = 3 on 3 different cell line passages since this was used as a test compound for the inhibition cocktail experiments.

[3] = RBC/PL partitioning equilibrium in whole blood; conditions: 2 hours, LC-MS/MS (ICP-MS for Ga^3+); for K2EDTA KRBC/PL: pooled K2EDTA whole blood; for Heparin KRBC/PL: pooled sodium heparin whole blood
Method: The mixtures were digested at 80 °C for 4 hours and further diluted to a concentration of 6% nitric acid. Gallium (Ga^71) in whole blood, PL, and RBC samples were quantified using an Agilent 7700x ICP-MS instrument (Agilent Technologies). Metal levels were detected using an Octopole Reaction System in He mode. Other ICP-MS parameters include an radio frequency power of 1500 W, on octupole radio frequency of 190 V, an octapole bias of –18 V, a helium gas flow of 4.3 mL/min, and an argon flow of 0.99 L/min. Samples were loaded through a 7700X peristaltic (with a speed of 0.1 rps) and a MicroMist nebulizer. A standard calibration curve was used to derive metal concentrations. The calibration standards from 0–250 ppb were prepared in 6% nitric acid using atomic absorption standards (Sigma). Data analysis and extraction were performed using Agilent’s MassHunter software version 5.1, specifically version D.01.01.
All LC-MS/MS grade solvents were purchased from ThermoFisher. Ammonium bicarbonate was purchased from Sigma Aldrich. Analysis was performed on a Waters I-Class ultra-performance liquid chromatography system connected with a Waters Xevo TQ-XS mass spectrometer. Ten millimolar ammonium bicarbonate, pH 9.4 was used for mobile phase A, and 100% methanol was used for mobile phase B. The column flow rate was set at 0.400 mL/min. Chromatographic separation was performed with a BEH C18 (2.1 × 50 mm, 1.7 μm) column (Waters). […] The total run time was 4 minutes. The column temperature was set to 60 °C, and the autosampler temperature was set to 15 °C. Washing parameters were 800 μL of weak needle wash (acetonitrile [ACN]:Water/50:50) and 1000 μL of strong needle wash (methanol:ACN:2-propanol:formic acid/30:30:40:0.5) after every injection. Transitions used to monitor all drugs in the study are shown in Supplemental Table 1.
Whole blood (either potassium EDTA [K2EDTA] or sodium heparin) was preincubated at 37 °C for 30 minutes before spiking with the analyte. GaSal-5 was made at a stock concentration of 100 μg/mL in water and then spiked at a high concentration (1 μg/mL) and low concentration (100 ng/mL) to determine whether equilibrium was concentration dependent. Samples were then aliquoted and stored in a water bath at 37 °C for 1, 2, 3, 4, and 8 hours or harvested immediately. PL was harvested from samples by centrifuging at 3000 rpm at 4 °C for 10 minutes. PL was transferred to a new tube and considered the PL fraction, whereas the rest of the matrix was considered the RBC fraction. Samples were then either analyzed by LC-MS/MS or ICP-MS. […] For selectivity lot analysis, whole blood from 3 male and 3 female donors were incubated for 2 hours and then analyzed with LC-MS/MS and ICP-MS at a single concentration of 1 μg/mL. Data are presented as average ± SEM, n = 3 per sample, per concentration. Significance was determined by using a paired t test for ICP-MS and LC-MS/MS data (the same sample, different method) or a 2-tailed Student’s t test for different anticoagulants.

Caco-2 cells = experiment: Caco-2 permeability screening; type: in vitro ADME; conditions: 20 μM, 30 and 60 min, average ± SEM
Method: as §1

[4] = calculated B/P, cited from earlier work

| SMILES | logP [1] | Kd (HasA) [nM] | Papp A→B [2] [×10⁻⁶ cm/s] | Papp B→A [2] [×10⁻⁶ cm/s] | Papp [2] [×10⁻⁶ cm/s] | efflux ratio at 20 µM [2] | K2EDTA KRBC/PL ([3]; 0.1 μg/mL) | K2EDTA KRBC/PL ([3]; 1 μg/mL) | also measured |
| --- | --- | --- | --- | --- | --- | --- | --- | --- | --- |
| CC(=Nc1ccccc1N=Cc1ccc(OCCC(=O)O)cc1O)c1ccccc1O.[Ga+3] [GaSal-9] | 3.03 | 330 ± 40 | < 0.01 | 22.5 ± 5.63 | < 1.12 | > 22.5 | 820 ± 59 | 13745 ± 3800 |  |
| CC(=Nc1ccccc1N=Cc1ccc(OCCN(C)C)cc1O)c1ccccc1O.[Ga+3] [GaSal-7] | 3.27 | 5000 ± 900 |  |  |  |  |  |  | Papp apical to basolateral (Caco-2 cells): Undetected; Papp basolateral to apical (Caco-2 cells): Undetected |
| CC(=Nc1ccccc1/N=C/c1ccc(OCCCO)cc1O)c1ccccc1O.[Ga+3] [GaSal-12] | 3.19 | 520 ± 10 | 0.05 ± 0.01 | 0.17 ± 0.06 | < 1.12 | 3.4 | 0.11 ± 0.06 | 0.13 ± 0.04 | Heparin KRBC/PL ([3]; 0.1 μg/mL): 0.86 ± 0.31; Heparin KRBC/PL ([3]; 1 μg/mL): 1.48 ± 0.10 |
| C[N+](C)(C)CCOc1ccc(/C=N/c2ccccc2/N=C/c2ccc(OCC[N+](C)(C)C)cc2O)c(O)c1.[Ga+3] [GaSal-1] |  | 2500 ± 1200 |  |  |  |  |  |  |  |
| C/C(=N\c1ccccc1/N=C/c1ccc(OCC[N+](C)(C)C)cc1O)c1ccccc1O.[Ga+3] [GaSal-6] |  | 4000 ± 2800 |  |  |  |  |  |  |  |
| [Pb] [Lead] |  |  |  |  |  |  |  |  | KRBC/PL (B/P ratio) ([4]; ref (Cao et al., 2023)): 1.13 |
| [Cr] [Chromium] |  |  |  |  |  |  |  |  | KRBC/PL (B/P ratio) ([4]; ref (Bonde & Christensen, 1991)): 1-3 |
| CCCCOc1ccc(/C=N/c2ccccc2/N=C/c2ccc(OCCCC)cc2O)c(O)c1.[Ga+3] [GaSal-15] | 5.99 | 1980 ± 170 | 0.79 ± 0.06 | 7.1 ± 1.13 | < 1.12 | 9.02 | 5.40 ± 0.13 | 3.81 ± 0.97 | Heparin KRBC/PL ([3]; 0.1 μg/mL): 0.83 ± 0.01; Heparin KRBC/PL ([3]; 1 μg/mL): 1.24 ± 0.03 |
| CN(C)CCOc1ccc(C=Nc2ccccc2N=Cc2ccc(OCCN(C)C)cc2O)c(O)c1.[Ga+3] [GaSal-2] | 3.7 | 1200 ± 300 |  |  |  |  |  |  | Papp apical to basolateral (Caco-2 cells): Undetected; Papp basolateral to apical (Caco-2 cells): Undetected |
| [Mn+2] [Manganese] |  |  |  |  |  |  |  |  | KRBC/PL (B/P ratio) ([4]; ref (Smith et al., 2007)): 0.2 |

Source: paper PMC12264554, “Application of preclinical absorption, distribution, metabolism, elimination in vitro techniques for the characterization and compound library optimization of novel antibiotic gallium salophen” (Drug Metabolism and Disposition, 2025)
